Data: patent US20240076285A1, “COMPOUNDS AND COMPOSITIONS FOR TREATING CONDITIONS ASSOCIATED WITH STING ACTIVITY” (IFM Due, Inc., priority 2020, published 2024)

Molecular target: T1, hSTING (Homo sapiens, UniProt Q86WV6, G230A/H232R/R293Q/R71H)
T1 construct: host or cells: THP1-Dual KO-IFNAR2 cells
Assay: STING reporter assay in THP1-Dual KO-IFNAR2 cells (2'3'cGAMP stimulation, luciferase reporter)
Format: cell-based
Conditions: 15 μM 2'3'cGAMP, 24 h, class symbols
Procedure: STING pathway activation by the compounds described herein was measured using THP1-Dual™ cells (KO-IFNAR2).
THP1-Dual™ KO-IFNAR2 Cells (obtained from invivogen) were maintained in RPMI, 10% FCS, 5 ml P/S, 2 mM L-glut, 10 mM Hepes, and 1 mM sodium pyruvate. Compounds were spotted in empty 384 well tissue culture plates (Greiner 781182) by Echo for a final concentration of 0.0017-100 μM. Cells were plated into the TC plates at 40 μL per well, 2×10E6 cells/mL. For activation with STING ligand, 2′3′cGAMP (MW 718.38, obtained from Invivogen), was prepared in Optimem media.
The following solutions were prepared for each 1×384 plate: • Solution A: 2 mL Optimem with one of the following stimuli: • 60 μL of 10 mM 2′3′cGAMP→150 μM stock • Solution B: 2 mL Optimem with 60 μL Lipofectamine 2000→Incubate 5 min at RT
2 mL of solution A and 2 ml Solution B was mixed and incubated for 20 min at room temperature (RT). 20 μL of transfection solution (A+B) was added on top of the plated cells, with a final 2′3′cGAMP concentration of 15 μM. The plates were then centrifuged immediately at 340 g for 1 minute, after which they were incubated at 37° C., 5% CO2, >98% humidity for 24 h. Luciferase reporter activity was then measured. EC50 values were calculated by using standard methods known in the art.
Luciferase reporter assay: 10 μL of supernatant from the assay was transferred to white 384-plate with flat bottom and squared wells. One pouch of QUANTI-Luc™ Plus was dissolved in 25 mL of water. 100 μL of QLC Stabilizer per 25 mL of QUANTI-Luc™ Plus solution was added. 50 μL of QUANTI-Luc™ Plus/QLC solution per well was then added. Luminescence was measured on a Platereader (e.g., Spectramax I3X (Molecular Devices GF3637001)).
Luciferase reporter activity was then measured. EC50 values were calculated by using standard methods known in the art.

T1 sequence (Q86WV6 whole entry R71H/G230A/H232R/R293Q): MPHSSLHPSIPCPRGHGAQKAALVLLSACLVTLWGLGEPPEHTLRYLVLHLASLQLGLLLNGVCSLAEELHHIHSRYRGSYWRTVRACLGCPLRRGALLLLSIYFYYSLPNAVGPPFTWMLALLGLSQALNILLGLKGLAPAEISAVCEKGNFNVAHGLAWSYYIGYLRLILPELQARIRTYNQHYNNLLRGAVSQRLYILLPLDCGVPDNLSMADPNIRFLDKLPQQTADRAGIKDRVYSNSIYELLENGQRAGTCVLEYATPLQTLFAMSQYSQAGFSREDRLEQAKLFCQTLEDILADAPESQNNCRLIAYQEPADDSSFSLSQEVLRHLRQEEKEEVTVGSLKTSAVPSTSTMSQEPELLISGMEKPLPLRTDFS

| SMILES | EC50 [µM] |
| --- | --- |
| N#Cc1cc(Cl)cc(Nc2cc(C#N)nc(Nc3ccc4cc[nH]c4c3)c2)c1 [Compound 135, 4-[(3-chloro-5-cyanophenyl)amino]-6-[(1H-indol-6-yl)amino]pyridine-2-carbonitrile] | 0.2 to 1 |
| N#Cc1cc(Nc2cc(Cl)cc(Cl)c2)cc(Nc2ccc3cc[nH]c3c2)n1 [Compound 136, 4-[(3,5-dichlorophenyl)amino]-6-[(1H-indol-6-yl)amino]pyridine-2-carbonitrile] | 0.2 to 1 |
| N#Cc1cc(Nc2cc(F)cc(F)c2)cc(Nc2ccc3cc[nH]c3c2)n1 [Compound 137, 4-[(3,5-difluorophenyl)amino]-6-[(1H-indol-6-yl)amino]pyridine-2-carbonitrile] | 0.2 to 1 |
| N#Cc1cc(Nc2ccc(Cl)c(Cl)c2)cc(Nc2ccc3cc[nH]c3c2)n1 [Compound 138, 4-[(3,4-dichlorophenyl)amino]-6-[(1H-indol-6-yl)amino]pyridine-2-carbonitrile] | 0.2 to 1 |
| N#Cc1cc(Nc2ccc(Cl)c(F)c2)cc(Nc2ccc3cc[nH]c3c2)n1 [Compound 139, 4-[(4-chloro-3-fluorophenyl)amino]-6-[(1H-indol-6-yl)amino]pyridine-2-carbonitrile] | 0.2 to 1 |
| N#Cc1cc(Nc2ccc(F)c(Cl)c2)cc(Nc2ccc3cc[nH]c3c2)n1 [Compound 140, 6-((1H-indol-6-yl)amino)-4-((3-chloro-4-fluorophenyl)amino)picolinonitrile] | 0.2 to 1 |
| N#Cc1cc(Nc2cncc(C(F)(F)F)c2)cc(Nc2ccc3cc[nH]c3c2)n1 [Compound 141, 6-[(1H-indol-6-yl)amino]-4-{[5-(trifluoromethyl)pyridin-3-yl]amino}pyridine-2-carbonitrile] | 0.2 to 1 |
| N#Cc1cc(Nc2ccc3c(c2)CCC3)cc(Nc2ccc3cc[nH]c3c2)n1 [Compound 142, 4-[(2,3-dihydro-1H-inden-5-yl)amino]-6-[(1H-indol-6-yl)amino]pyridine-2-carbonitrile] | 0.2 to 1 |
| N#Cc1cc(Nc2ccc3c(c2)OC(F)(F)C(F)(F)O3)cc(Nc2ccc3cc[nH]c3c2)n1 [Compound 143, 6-((1H-indol-6-yl)amino)-4-((2,2,3,3-tetrafluoro-2,3-dihydrobenzo[b][1,4]dioxin-6-yl)amino)picolinonitrile] | 0.2 to 1 |
| N#Cc1cc(Nc2ccc3c(c2)OCCO3)cc(Nc2ccc3cc[nH]c3c2)n1 [Compound 144, 4-[(2,3-dihydro-1,4-benzodioxin-6-yl)amino]-6-[(1H-indol-6-yl)amino]pyridine-2-carbonitrile] | 1 to 5 |
| N#Cc1cc(Nc2ccc3cc[nH]c3c2)cc(Nc2ccc3cc[nH]c3c2)n1 [Compound 145] | 0.2 to 1 |
| Fc1cnc(Nc2ccc3cc[nH]c3c2)cc1Nc1ccc2cc[nH]c2c1 [Compound 146] | 1 to 5 |
| N#Cc1cc(N2CCC(C(F)(F)F)CC2)cc(Nc2cc(Cl)c3cc[nH]c3c2)n1 [Compound 147, 6-[(4-chloro-1H-indol-6-yl)amino]-4-[4-(trifluoromethyl)piperidin-1-yl]pyridine-2-carbonitrile] | 0.2 to 1 |
| N#Cc1cc(N2CCN(CC(F)(F)F)CC2)cc(Nc2cc(Cl)c3cc[nH]c3c2)n1 [Compound 148, 6-[(4-chloro-1H-indol-6-yl)amino]-4-[4-(2,2,2-trifluoroethyl)piperazin-1-yl]pyridine-2-carbonitrile] | 1 to 5 |
| N#Cc1cc(N2CCC(Cc3ccc(F)cc3)CC2)cc(Nc2cc(Cl)c3cc[nH]c3c2)n1 [Compound 149, 6-[(4-chloro-1H-indol-6-yl)amino]-4-{4-[(4-fluorophenyl)methyl]piperidin-1-yl}pyridine-2-carbonitrile] | 0.2 to 1 |
| COc1cc(Nc2cc(C#N)nc(Nc3cc(Cl)c4cc[nH]c4c3)c2)cnc1Cl [Compound 150, 6-[(4-chloro-1H-indol-6-yl)amino]-4-[(6-chloro-5-methoxypyridin-3-yl)amino]pyridine-2-carbonitrile] | 0.2 to 1 |
| N#Cc1cc(N2CCC(Cc3ccccc3)CC2)cc(Nc2cc(Cl)c3cc[nH]c3c2)n1 [Compound 151, 4-(4-benzylpiperidin-1-yl)-6-[(4-chloro-1H-indol-6-yl)amino]pyridine-2-carbonitrile] | 0.2 to 1 |
| CN1CCN(c2cc(C#N)nc(Nc3cc(Cl)c4cc[nH]c4c3)c2)CC1 [Compound 152, 6-[(4-chloro-1H-indol-6-yl)amino]-4-(4-methylpiperazin-1-yl)pyridine-2-carbonitrile] | 5 to 100 |
| N#Cc1cc(Nc2ccc(OCC(F)(F)F)nc2)cc(Nc2cc(Cl)c3cc[nH]c3c2)n1 [Compound 153, 6-[(4-chloro-1H-indol-6-yl)amino]-4-{[6-(2,2,2-trifluoroethoxy)pyridin-3-yl]amino}pyridine 2-carbonitrile] | 0.04 to 0.2 |
| N#Cc1cc(Nc2ccc(Cl)c(Cl)c2)cc(Nc2cc(Cl)c3cc[nH]c3c2)n1 [Compound 154, 6-[(4-chloro-1H-indol-6-yl)amino]-4-[(3,4-dichlorophenyl)amino]pyridine-2-carbonitrile] | 0.04 to 0.2 |
| N#Cc1cc(N2CCC(Oc3ccccc3)CC2)cc(Nc2cc(Cl)c3cc[nH]c3c2)n1 [Compound 155, 6-[(4-chloro-1H-indol-6-yl)amino]-4-(4-phenoxypiperidin-1-yl)pyridine-2-carbonitrile] | 0.2 to 1 |
| COC1CCN(c2cc(C#N)nc(Nc3cc(Cl)c4cc[nH]c4c3)c2)CC1 [Compound 156, 6-[(4-chloro-1H-indol-6-yl)amino]-4-(4-methoxypiperidin-1-yl)pyridine-2-carbonitrile] | 1 to 5 |
| CC(C)CN1CCN(c2cc(C#N)nc(Nc3cc(Cl)c4cc[nH]c4c3)c2)CC1 [Compound 157, 6-[(4-chloro-1H-indol-6-yl)amino]-4-[4-(2-methylpropyl)piperazin-1-yl]pyridine-2-carbonitrile] | 1 to 5 |

More lines, now with the values ahead:

| EC50 [µM] | SMILES |
| --- | --- |
| 0.2 to 1 | N#Cc1cc(Nc2cncc(F)c2)cc(Nc2cc(Cl)c3cc[nH]c3c2)n1 [Compound 158, 6-[(4-chloro-1H-indol-6-yl)amino]-4-[(5-fluoropyridin-3-yl)amino]pyridine-2-carbonitrile] |
| 0.04 to 0.2 | N#Cc1cc(Nc2ccc(C(F)(F)F)c(F)c2)cc(Nc2cc(Cl)c3cc[nH]c3c2)n1 [Compound 159, 6-[(4-chloro-1H-indol-6-yl)amino]-4-{[3-fluoro-4-(trifluoromethyl)phenyl]amino}pyridine-2-carbonitrile] |
| 0.2 to 1 | CC1(C)CCN(c2cc(C#N)nc(Nc3cc(Cl)c4cc[nH]c4c3)c2)CC1 [Compound 160, 6-[(4-chloro-1H-indol-6-yl)amino]-4-(4,4-dimethylpiperidin-1-yl)pyridine-2-carbonitrile] |
| 1 to 5 | N#Cc1cc(N2CCOCC2)cc(Nc2cc(Cl)c3cc[nH]c3c2)n1 [Compound 161, 6-[(4-chloro-1H-indol-6-yl)amino]-4-(morpholin-4-yl)pyridine-2-carbonitrile] |
| 0.2 to 1 | CC(C)c1cncc(Nc2cc(C#N)nc(Nc3cc(Cl)c4cc[nH]c4c3)c2)c1 [Compound 162, 6-[(4-chloro-1H-indol-6-yl)amino]-4-{[5-(propan-2-yl)pyridin-3-yl]amino}pyridine-2-carbonitrile] |
| 0.2 to 1 | CC(C)(C)c1cncc(Nc2cc(C#N)nc(Nc3cc(Cl)c4cc[nH]c4c3)c2)c1 [Compound 163, 4-[(5-tert-butylpyridin-3-yl)amino]-6-[(4-chloro-1H-indol-6-yl)amino]pyridine-2-carbonitrile] |
| 0.2 to 1 | N#Cc1cc(Nc2cc(Cl)cc(Cl)c2)cc(Nc2cc(Cl)c3cc[nH]c3c2)n1 [Compound 164, 6-[(4-chloro-1H-indol-6-yl)amino]-4-[(3,5-dichlorophenyl)amino]pyridine-2-carbonitrile] |
| 0.04 to 0.2 | N#Cc1cc(Nc2ccc(Cl)c(F)c2)cc(Nc2cc(Cl)c3cc[nH]c3c2)n1 [Compound 165, 6-[(4-chloro-1H-indol-6-yl)amino]-4-[(4-chloro-3-fluorophenyl)amino]pyridine-2-carbonitrile] |
| 0.2 to 1 | COc1ccc(Nc2cc(C#N)nc(Nc3cc(Cl)c4cc[nH]c4c3)c2)cn1 [Compound 166, 6-[(4-chloro-1H-indol-6-yl)amino]-4-[(6-methoxypyridin-3-yl)amino]pyridine-2-carbonitrile] |
| 0.2 to 1 | N#Cc1cc(Nc2cc(Cl)cc(OC(F)(F)F)c2)cc(Nc2cc(Cl)c3cc[nH]c3c2)n1 [Compound 167, 6-[(4-chloro-1H-indol-6-yl)amino]-4-{[3-chloro-5-(trifluoromethoxy)phenyl]amino}pyridine-2-carbonitrile] |
| 0.04 to 0.2 | N#Cc1cc(Nc2ccc(F)c(F)c2)cc(Nc2cc(Cl)c3cc[nH]c3c2)n1 [Compound 168, 6-[(4-chloro-1H-indol-6-yl)amino]-4-[(3,4-difluorophenyl)amino]pyridine-2-carbonitrile] |
